Experimental data: patent US20260297134A1, “CYCLIC PEPTIDES AS PET IMAGING AGENTS OF GRANZYME B” (Merck Sharp & Dohme LLC, priority 2023, published 2026)
Bridge positions count the residues as written; N and C are the ends. Square brackets hold non-standard residues; d marks the D form. Peptide text beside a SMILES is read from it. * marks the point of attachment. X1 = O=C(O)CN1CCN(CC(=O)O)CC(Cc2ccc(NC(=S)*)cc2)N(CC(=O)O)CC1; NMeF = CN[C@@H](Cc1ccccc1)C(=O)O; NMeA = CN[C@@H](C)C(=O)O; Propionyl = CCC(=O)*

Biological target: human Granzyme B (hGranzyme B) (Homo sapiens, UniProt P10144)
Sequence (P10144 21-247): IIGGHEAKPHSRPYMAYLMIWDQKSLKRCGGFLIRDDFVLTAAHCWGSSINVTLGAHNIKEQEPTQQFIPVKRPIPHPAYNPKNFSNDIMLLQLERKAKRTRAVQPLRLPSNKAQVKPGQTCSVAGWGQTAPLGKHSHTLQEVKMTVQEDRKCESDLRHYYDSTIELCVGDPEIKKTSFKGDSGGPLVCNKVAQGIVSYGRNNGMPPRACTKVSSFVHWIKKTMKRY
Assay: Surface Plasmon Resonance (SPR) binding to human Granzyme B
Details: Table 8, 25° C.
Protocol: All reagents and solvents were purchased from commercial sources and used “as is” unless otherwise noted. Reaction progress and synthetic intermediate analysis were assessed by LCMS (UV detection with ESI, APCI, or other mass detection) when applicable using a MeCN/water gradient with either TFA, formic acid, or NH4HCO3 modifier. Silica gel and reverse-phase flash column chromatography were conducted with commercially available pre-packed columns. Reverse-phase preparative HPLC purification was performed on preparative HPLC instruments with UV and MS detection using a MeCN/water gradient with either TFA, formic acid, or NH4OH modifier. Unless otherwise noted, all KD data presented in tables refers to the surface plasmon resonance assay that is described in the Biological Assay section.
The kinetics of test peptide binding to human Granzyme B (hGranzyme B) was determined by SPR. All experiments were performed at 25° C. using the Biacore 8k+ instrument (Cytiva, Marlborough, MA). The Biacore 8k+ Insight Evaluation Software Version 3.0 was used to fit the data with a 1:1 binding model to determine the association rate constant ka (M^−1s^−1, where “M” equals molar and “s” equals seconds) and the dissociation rate constant kd (s^−1). These rate constants were used to calculate the equilibrium dissociation constant, KD (M)=kd/ka. To measure the binding kinetics of peptides of interest, surfaces were prepared by a capture method to a Series S Streptavidin (SA) chip using a 1×HBS-EP+ running buffer (Cytiva). hGranzyme B was diluted to 10 μg/mL in 1×HBS-EP+ and flowed over spot 2 of each flow cell on the chip at a flow rate of 10 μl/min for 20 s to achieve a level of capture of ~1100 RU. An unmodified spot 1 of each flow cell was used as a matrix binding control or reference surface. Binding kinetics were measured using single cycle kinetics at 25° C. by injecting 5 concentrations with 3-fold serial dilutions of test peptides from […] to 1 μM. Compound dilutions were performed manually in a running buffer containing 1×HBS-EP+(Cytiva), and a final concentration of 2% DMSO. The interaction analyses over hGranzyme B, were performed using a 120 s association time and a 900 s dissociation time. All experiments were conducted at a flow rate of […] with a data collection rate of 10 Hz.
Peptide dilution series included 2 zero concentration points (no compound) which were averaged and subtracted from the peptide concentration injection as DMSO control responses. Binding data acquired from the reference surface (matrix binding control) were subtracted from the binding data for hGranzyme B surface on the chip to determine specific binding. Next, the association phase data were solvent corrected to account for any signal fluctuation throughout the experiment due to subtle DMSO concentration differences. Corrected response data were analyzed using the Biacore 8k+ Evaluation Software Version 3.0 according to the manufacturer. SPR data for representative compounds of the disclosure are found in Table 8.

| Structure (SMILES) | Kd |
| --- | --- |
| CC(C)[C@@H]1NC(=O)[C@H](CC(=O)O)NC(=O)[C@H](C)NC(=O)[C@H](CC(=O)O)NC(=O)[C@H](Cc2ccc(O)cc2)NC(=O)[C@H](Cc2ccc(O)cc2)NC(=O)[C@H](Cc2ccccc2)N(C)C(=O)[C@H](Cc2ccccc2)N(C)C(=O)[C@H](Cc2ccccc2)NC(=O)CSC[C@@H](C(=O)NCC(N)=O)NC(=O)[C@H](Cc2c[nH]cn2)NC(=O)[C@H](Cc2ccccc2)N(C)C(=O)[C@H](Cc2ccc(O)cc2)NC(=O)[C@H](C(C)C)NC(=O)[C@H](CC(=O)O)NC1=O [Compound 20a, *F.NMeF.NMeF.Y.Y.D.A.D.V.D.V.Y.NMeF.H.*C.G-NH2] ({CH2CO}-F[NMeF][NMeF]YYDADVDVY[NMeF]HCG-NH2; thioether N-15) | 288 nM |
| CC(C)[C@@H]1NC(=O)[C@H](CC(=O)O)NC(=O)[C@H](Cc2ccc(O)cc2)NC(=O)[C@H](Cc2ccc(O)cc2)NC(=O)[C@H](C)NC(=O)[C@H](Cc2ccccc2)N(C)C(=O)[C@H](Cc2ccccc2)NC(=O)CSC[C@@H](C(=O)NCC(=O)NCC(=O)N[C@@H](CCCCN)C(N)=O)NC(=O)[C@H](Cc2c[nH]cn2)NC(=O)[C@H](Cc2ccccc2)N(C)C(=O)[C@H](Cc2ccc(O)cc2)NC(=O)[C@H](C(C)C)NC(=O)[C@H](CC(=O)O)NC(=O)[C@H](C(C)C)NC(=O)[C@H](CC(=O)O)NC1=O [Compound 9a, *F.NMeF.A.Y.Y.D.V.D.V.D.V.Y.NMeF.H.*C.G.G.K-NH2] ({CH2CO}-F[NMeF]AYYDVDVDVY[NMeF]HCGGK-NH2; thioether N-15) | 188 nM |
| CC(C)[C@@H]1NC(=O)[C@H](CC(=O)O)NC(=O)[C@H](C(C)C)NC(=O)[C@H](CC(=O)O)NC(=O)[C@H](C(C)C)NC(=O)[C@H](CC(=O)O)NC(=O)[C@H](Cc2ccc(O)cc2)NC(=O)[C@H](Cc2ccc(O)cc2)NC(=O)[C@H](Cc2ccccc2)N(C)C(=O)[C@H](Cc2ccccc2)N(C)C(=O)[C@H](Cc2ccccc2)NC(=O)CSC[C@@H](C(=O)NCC(N)=O)NC(=O)[C@H](Cc2c[nH]cn2)NC(=O)[C@H](Cc2ccccc2)N(C)C(=O)[C@H](C)NC1=O [Compound 21a, *F.NMeF.NMeF.Y.Y.D.V.D.V.D.V.A.NMeF.H.*C.G-NH2] ({CH2CO}-F[NMeF][NMeF]YYDVDVDVA[NMeF]HCG-NH2; thioether N-15) | 453 nM |
| CC(C)[C@@H]1NC(=O)[C@H](CC(=O)O)NC(=O)[C@H](Cc2ccc(O)cc2)NC(=O)[C@H](Cc2ccc(O)cc2)NC(=O)[C@H](Cc2ccccc2)N(C)C(=O)[C@H](Cc2ccccc2)N(C)C(=O)[C@H](C)NC(=O)CSC[C@@H](C(=O)NCC(N)=O)NC(=O)[C@H](Cc2c[nH]cn2)NC(=O)[C@H](Cc2ccccc2)N(C)C(=O)[C@H](Cc2ccc(O)cc2)NC(=O)[C@H](C(C)C)NC(=O)[C@H](CC(=O)O)NC(=O)[C@H](C(C)C)NC(=O)[C@H](CC(=O)O)NC1=O [Compound 19a, *A.NMeF.NMeF.Y.Y.D.V.D.V.D.V.Y.NMeF.H.*C.G-NH2] ({CH2CO}-A[NMeF][NMeF]YYDVDVDVY[NMeF]HCG-NH2; thioether N-15) | 165 nM |
| CC(C)[C@@H]1NC(=O)[C@H](CC(=O)O)NC(=O)[C@H](Cc2ccc(O)cc2)NC(=O)[C@H](C)NC(=O)[C@H](Cc2ccccc2)N(C)C(=O)[C@H](Cc2ccccc2)N(C)C(=O)[C@H](Cc2ccccc2)NC(=O)CSC[C@@H](C(=O)NCC(N)=O)NC(=O)[C@H](Cc2c[nH]cn2)NC(=O)[C@H](Cc2ccccc2)N(C)C(=O)[C@H](Cc2ccc(O)cc2)NC(=O)[C@H](C(C)C)NC(=O)[C@H](CC(=O)O)NC(=O)[C@H](C(C)C)NC(=O)[C@H](CC(=O)O)NC1=O [Compound 23a, *F.NMeF.NMeF.A.Y.D.V.D.V.D.V.Y.NMeF.H.*C.G-NH2] ({CH2CO}-F[NMeF][NMeF]AYDVDVDVY[NMeF]HCG-NH2; thioether N-15) | 752 nM |

The next compounds have a lower Kd than those just listed; values first:

| Kd | Structure (SMILES) |
| --- | --- |
| 0.1 nM | CC(C)[C@@H]1NC(=O)[C@H](CC(=O)O)NC(=O)[C@H](Cc2ccc(O)cc2)NC(=O)[C@H](Cc2ccc(O)cc2)NC(=O)[C@H](Cc2ccccc2)N(C)C(=O)[C@H](Cc2ccccc2)N(C)C(=O)[C@H](Cc2ccccc2)NC(=O)CSC[C@@H](C(=O)NCC(=O)N[C@@H](CCCCN)C(=O)N[C@@H](CCCCN)C(N)=O)NC(=O)[C@H](Cc2c[nH]cn2)NC(=O)[C@H](Cc2ccccc2)N(C)C(=O)[C@H](Cc2ccc(O)cc2)NC(=O)[C@H](C(C)C)NC(=O)[C@H](CC(=O)O)NC(=O)[C@H](C(C)C)NC(=O)[C@H](CC(=O)O)NC1=O [Compound 13a, *F.NMeF.NMeF.Y.Y.D.V.D.V.D.V.Y.NMeF.H.*C.G.K.K-NH2] ({CH2CO}-F[NMeF][NMeF]YYDVDVDVY[NMeF]HCGKK-NH2; thioether N-15) |
| 5.4 nM | CC(C)[C@@H]1NC(=O)[C@H](CC(=O)O)NC(=O)[C@H](Cc2ccc(O)cc2)NC(=O)[C@H](Cc2ccc(O)cc2)NC(=O)[C@H](C)N(C)C(=O)[C@H](Cc2ccccc2)N(C)C(=O)[C@H](Cc2ccccc2)NC(=O)CSC[C@@H](C(=O)NCC(N)=O)NC(=O)[C@H](Cc2c[nH]cn2)NC(=O)[C@H](Cc2ccccc2)N(C)C(=O)[C@H](Cc2ccc(O)cc2)NC(=O)[C@H](C(C)C)NC(=O)[C@H](CC(=O)O)NC(=O)[C@H](C(C)C)NC(=O)[C@H](CC(=O)O)NC1=O [Compound 24a, *F.NMeF.NMeA.Y.Y.D.V.D.V.D.V.Y.NMeF.H.*C.G-NH2] ({CH2CO}-F[NMeF][NMeA]YYDVDVDVY[NMeF]HCG-NH2; thioether N-15) |
| 0.8 nM | CC(C)[C@@H]1NC(=O)[C@H](CC(=O)O)NC(=O)[C@H](Cc2ccc(O)cc2)NC(=O)[C@H](Cc2ccc(O)cc2)NC(=O)[C@H](Cc2ccccc2)N(C)C(=O)[C@H](Cc2ccccc2)N(C)C(=O)[C@H](Cc2ccccc2)NC(=O)CSC[C@@H](C(=O)NCC(N)=O)NC(=O)[C@H](C)NC(=O)[C@H](Cc2ccccc2)N(C)C(=O)[C@H](Cc2ccc(O)cc2)NC(=O)[C@H](C(C)C)NC(=O)[C@H](CC(=O)O)NC(=O)[C@H](C(C)C)NC(=O)[C@H](CC(=O)O)NC1=O [Compound 14a, *F.NMeF.NMeF.Y.Y.D.V.D.V.D.V.Y.NMeF.A.*C.G-NH2] ({CH2CO}-F[NMeF][NMeF]YYDVDVDVY[NMeF]ACG-NH2; thioether N-15) |
| 1 nM | CC(C)[C@@H]1NC(=O)[C@H](CC(=O)O)NC(=O)[C@H](Cc2ccc(O)cc2)NC(=O)[C@H](Cc2ccc(O)cc2)NC(=O)[C@H](Cc2ccccc2)N(C)C(=O)[C@H](Cc2ccccc2)N(C)C(=O)[C@H](Cc2ccccc2)NC(=O)CSC[C@@H](C(=O)NCC(=O)NCC(=O)N[C@@H](CCCCNC(=S)Nc2ccc(CC3CN(CC(=O)O)CCN(CC(=O)O)CCN3CC(=O)O)cc2)C(N)=O)NC(=O)[C@H](Cc2c[nH]cn2)NC(=O)[C@H](Cc2ccccc2)N(C)C(=O)[C@H](Cc2ccc(O)cc2)NC(=O)[C@H](C(C)C)NC(=O)[C@H](CC(=O)O)NC(=O)[C@H](C(C)C)NC(=O)[C@H](CC(=O)O)NC1=O (some centres unmarked) [Compound 3a, *F.NMeF.NMeF.Y.Y.D.V.D.V.D.V.Y.NMeF.H.*C.G.G.K(NOTA)-NH2] ({CH2CO}-F[NMeF][NMeF]YYDVDVDVY[NMeF]HCGGK(X1)-NH2; thioether N-15) |
| 1.1 nM | CCC(=O)NCCCC[C@H](NC(=O)CNC(=O)CNC(=O)[C@@H]1CSCC(=O)N[C@@H](Cc2ccccc2)C(=O)N(C)[C@@H](Cc2ccccc2)C(=O)N(C)[C@@H](Cc2ccccc2)C(=O)N[C@@H](Cc2ccc(O)cc2)C(=O)N[C@@H](Cc2ccc(O)cc2)C(=O)N[C@@H](CC(=O)O)C(=O)N[C@@H](C(C)C)C(=O)N[C@@H](CC(=O)O)C(=O)N[C@@H](C(C)C)C(=O)N[C@@H](CC(=O)O)C(=O)N[C@@H](C(C)C)C(=O)N[C@@H](Cc2ccc(O)cc2)C(=O)N(C)[C@@H](Cc2ccccc2)C(=O)N[C@@H](Cc2c[nH]cn2)C(=O)N1)C(N)=O [Compound 4a, *F.NMeF.NMeF.Y.Y.D.V.D.V.D.V.Y.NMeF.H.*C.G.G.K(Prop)-NH2] ({CH2CO}-F[NMeF][NMeF]YYDVDVDVY[NMeF]HCGGK(Propionyl)-NH2; thioether N-15) |
| 68 nM | CC(C)[C@@H]1NC(=O)[C@H](CC(=O)O)NC(=O)[C@H](Cc2ccc(O)cc2)NC(=O)[C@H](Cc2ccc(O)cc2)NC(=O)[C@H](C)NC(=O)[C@H](Cc2ccccc2)N(C)C(=O)[C@H](Cc2ccccc2)NC(=O)CSC[C@@H](C(=O)NCC(N)=O)NC(=O)[C@H](Cc2c[nH]cn2)NC(=O)[C@H](Cc2ccccc2)N(C)C(=O)[C@H](Cc2ccc(O)cc2)NC(=O)[C@H](C(C)C)NC(=O)[C@H](CC(=O)O)NC(=O)[C@H](C(C)C)NC(=O)[C@H](CC(=O)O)NC1=O [Compound 18a, *F.NMeF.A.Y.Y.D.V.D.V.D.V.Y.NMeF.H.*C.G-NH2] ({CH2CO}-F[NMeF]AYYDVDVDVY[NMeF]HCG-NH2; thioether N-15) |
